Tests used:
C57Bl/6 mice = assay: In vivo activity of purine probes in mouse tissues, gel-based; conditions: for time of peak / most robust labeling in vivo: 20 mg/kg probe
Method: Mouse Treatment and Tissue Preparation Methods: 8-12 week old male and female C57Bl/6 mice were treated intraperitoneally (IP) or by oral gavage (OG) with either AHL125 (Pu-1 or AHL-Pu-1), AHL128 (Pu-2 or AHL-Pu-2), or vehicle (18:1:2, PBS:PEG40:DMSO) at 20 mg/kg unless stated otherwise. Treatment time is indicated in the experiment below. Mice were then euthanized and perfused using PBS. Tissues were then harvested, rinsed and flash frozen using liquid nitrogen and stored at −80° C. until further use. Tissues were lysed using dounce homgenization in the presence of PBS+protease inhibitor. Initial suspensions were centrifuged at 3000×g for 5 minutes to remove insoluble material. The lysate was collected and centrifuged again at 100,000×g for 45 minutes to obtain the soluble fraction. Purine probe modified proteins from treated mice were conjugated to rhodamine-azide by CuAAC, subjected to SDS-PAGE analysis, and detected by in-gel fluorescence scanning. SDS-PAGE gels were stained with Coomassie brilliant blue to determine protein load. All samples were loaded with equivalent amounts of protein. Thus, changes in purine probe labeling is not due to loading of different proteome amounts.
Mice were also treated with 80 mg/kg oral gavage (OG) to determine whether purine probes are orally bioavailable. Mice were treated for four hours.

[1] = biological target: T1, human eEF-Sec (Uniprot ID P57772) (Homo sapiens, UniProt P57772); assay: Purine probe labeling of recombinant eEF-Sec expressed in HEK293T cells, gel-based; format: cell-based; conditions: 50 μM probe, live cells, 0.5 to 2 hours
T1 construct: FLAG; expressed in transfected cells; host or cells: HEK293T
T1 sequence (P57772 1-596): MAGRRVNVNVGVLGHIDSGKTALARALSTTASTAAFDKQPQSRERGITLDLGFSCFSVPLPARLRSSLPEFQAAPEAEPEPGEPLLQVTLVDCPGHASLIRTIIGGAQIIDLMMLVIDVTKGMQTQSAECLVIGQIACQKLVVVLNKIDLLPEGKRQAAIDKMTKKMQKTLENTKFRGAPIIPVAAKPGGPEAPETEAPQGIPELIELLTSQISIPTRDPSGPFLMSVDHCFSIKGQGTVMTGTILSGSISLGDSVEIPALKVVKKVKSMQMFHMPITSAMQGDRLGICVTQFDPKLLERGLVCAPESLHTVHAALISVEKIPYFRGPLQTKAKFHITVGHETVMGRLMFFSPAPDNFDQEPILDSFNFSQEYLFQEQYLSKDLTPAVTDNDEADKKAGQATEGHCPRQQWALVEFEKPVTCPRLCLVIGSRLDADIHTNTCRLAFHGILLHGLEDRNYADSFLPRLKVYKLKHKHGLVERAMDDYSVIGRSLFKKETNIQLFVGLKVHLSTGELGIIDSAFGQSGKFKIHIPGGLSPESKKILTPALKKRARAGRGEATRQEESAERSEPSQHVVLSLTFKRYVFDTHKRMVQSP
Method: Methods: HEK293T cells were grown at 37° C. in 5% CO2 until 40% confluent. Recombinant human eEF-Sec (Uniprot ID P57772) was expressed by transient transfection for 48 hours. […] Lysates were spun at 100,000×g for 45 minutes. […] Purine probe modified proteins were conjugated to rhodamine-azide by CuAAC, subjected to SDS-PAGE analysis, and detected by in-gel fluorescence scanning. Comparison of non-transfected (Mock) and transfected proteomes was used to identify the recombinant eEF-Sec purine probe-labeled band. […] Reduction in fluorescent signals from purine probe labeling was indicative of Pi ligand inhibitory activity. Mut represents eEF-Sec mutant where cysteine residue 442 is mutated to alanine (C442A).
SDS-PAGE gels were transferred to nitrocellulose membrane. Nitrocellulose blots were blocked with 5% BSA. Blots were washed five times with TBS-T. Recombinant protein expression was detected using an anti-FLAG primary antibody (1:1,000) followed by fluorescent secondary antibody (1:10,000) to determine if there was equivalent protein expression across different treatment conditions.

[2] = HPLC assay for profiling solution reactivity and stability of purine fragments (probes) with amino acid mimetics; format: physicochemical; conditions: for reaction with butanethiol: cysteine mimetic
Method: HPLC assay for profiling solution reactivity and stability of purine fragments: The following reagents were prepared and stored on ice prior to use. 0.1 molar (M) solution of caffeine in acetonitrile, 1.0 M solution of amino acid mimetic (butanethiol—cysteine mimetic; n-butylamine—lysine mimetic; p-cresol—tyrosine mimetic; propionamide-asparagine/glutamine mimetic; butyric acid—aspartic/glutamic acid mimetic), tetramethylguanidine (TMG), 1 M acetic acid (HOAc) in acetonitrile (ACN) and 10 mM solution of purine fragment in ACN mixture. 500 μL of fragment solution were transferred to a dram vial on ice. To the mixture, 5.5 μL of TMG and 5.5 μL of respective amino acid mimetic were added and solutions were stirred on ice for 6 h. To monitor reactivity, 50 μL aliquots were removed at indicated time points and quenched with 10 μL of a 1:1 mixture of caffeine and HOAc. Samples were injected (1 μL) and analyzed by reverse-phase HPLC on a Shimadzu 1100 Series spectrometer (Shimadzu Corporation, Kyoto, Japan) with UV detection at 254 nm. Reaction progress was evaluated by monitoring consumption of starting material (purine fragment) normalized to caffeine standard. Chromatographic separation was performed using a Phenomenex Kinetex C18 column (2.6 μm, 50×4.6 mm; Phenomenex, Torrance, Calif., United States of America). Mobile phases A and B were composed of H2O+0.1% HOAc and ACN+0.1% HOAc, respectively. […] All purine fragment peak AUCs used for calculations were normalized to caffeine standard AUCs at respective time points to account for run-to-run variations by HPLC. The amount of purine fragment consumed (% starting material) was plotted as a function of time.
Discussion: An HPLC assay for determining the reactivity of the purine-based probes with mimetics of amino acid residues was performed. […] Reaction progress was monitored by monitoring the disappearance of starting material and appearance of product via HPLC.

Row | Compound | time of peak / most robust labeling in vivo (C57Bl/6 mice) [h] | labeling of recombinant eEF-SEC [1] | reaction with butanethiol ([2]; on ice 6 h) | reactivity with lysine mimetic ([2]; n-butylamine, on ice 6 h) | tissue with highest activity (C57Bl/6 mice) | labeling profile in vivo across tissues (C57Bl/6 mice; IP or OG, lung, liver, spleen, heart, brain, kidney, WAT) | solution-based reactivity with amino acid mimetics ([2]; HPLC, % starting material consumed, on ice 6 h) | reaction kinetics compared to N9 counterparts ([2]; butanethiol, versus Pu-2, Pu-4, Pu-10) | reactivity towards nucleophilic attack, N7 versus N9 tautomer ([2]; compared with Pu-2)
1 | C#CCn1cnc2c(Cl)nc(Cl)nc21 [Pu-2, 2,6-Dichloro-9-(prop-2-yn-1-yl)-9H-purine] | 4 | labeled in a time dependent manner | react with butanethiol | mild lysine (Lys) reactivity |  |  |  |  | 
2 | C#CCn1cnc2nc(Cl)nc(Cl)c21 [Pu-1, 2,6-Dichloro-7-(prop-2-yn-1-yl)-7H-purine] | 2 | labeled in a time dependent manner | react with butanethiol |  | highest activity in lung | most robust labeling profile in vivo | modifies cysteine (Cys) and tyrosine (Tyr) amino acid mimetics | accelerated reaction kinetics | more reactive towards nucleophilic attack

Source: patent publication US20220251085A1, “CYSTEINE BINDING COMPOSITIONS AND METHODS OF USE THEREOF” (University of Virginia Patent Foundation, priority 2019, published 2022)
